This is an account of results in patent publication US20150322112A1, “SEMA5B PEPTIDES AND VACCINES CONTAINING THE SAME” (ONCOTHERAPY SCIENCE, INC., priority 2012, published 2015).

For experiment [1], the system named is peptide-pulsed TISI cells. Kind of experiment: IFN-gamma ELISA of CTL clones established by limiting dilution. Type of experiment: cell-based, human. The following applies: CTL clones from limiting dilution, target cells pulsed with peptide vs not pulsed. The protocol:
The dilutions were made to have 0.3, 1, and 3 CTLs/well in 96 round-bottomed micro titer plate (Nalge Nunc International). CTLs were cultured with 1×10^4 cells/well of 2 kinds of human B-lymphoblastoid cell lines, 30 ng/ml of anti-CD3 antibody, and 125 IU/ml of IL-2 in a total of 150 micro 1/well of AIM-V Medium containing 5% AS. 50 micro 1/well of IL-2 were added to the medium 10 days later so to reach a final concentration of 125 IU/ml IL-2. CTL activity was tested on the 14th day, and CTL clones were expanded using the same method as described above (Uchida N et al., Clin Cancer Res 2004 Dec. 15, 10(24): 8577-86; Suda T et al., Cancer Sci 2006 May, 97(5): 411-9; Watanabe T et al., Cancer Sci 2005 August, 96(8): 498-506).
(§1) Peptide-pulsed TISI (1×10^4/well) was prepared as stimulator cells. Cultured cells in 48 wells were used as responder cells. IFN-gamma ELISPOT assay and IFN-gamma ELISA were performed under manufacture procedure.
(An ELISA detects its analyte on a solid surface through an enzyme-linked reagent.)

Experiment [2] deals with peptide-pulsed TISI cells. Kind of experiment: IFN-gamma ELISA of expanded CTL lines. Type of experiment: cell-based, human. Conditions: CTL lines stimulated with the peptide; target cells pulsed with peptide vs without peptide pulse. Here is the method: CTLs were expanded in culture using the method similar to the one described by Riddell et al. (Walter E A et al., N Engl J Med 1995 October 19, 333(16): 1038-44; Riddell S R et al., Nat Med 1996 February, 2(2): 216-23). A total of 5×10^4 CTLs were suspended in 25 ml of AIM-V/5% AS medium with 2 kinds of human B-lymphoblastoid cell lines, inactivated by Mitomycin C, in the presence of 40 ng/ml of anti-CD3 monoclonal antibody (Pharmingen). One day after initiating the cultures, 120 IU/ml of IL-2 were added to the cultures. The cultures were fed with fresh AIM-V/5% AS medium containing 30 IU/ml of IL-2 on days 5, 8 and 11 (Tanaka H et al., Br J Cancer 2001 Jan 5, 84(1): 94-9; Umano Y et al., Br J Cancer 2001 Apr. 20, 84(8): 1052-7; Uchida N et al., Clin Cancer Res 2004 Dec. 15, 10(24): 8577-86; Suda T et al., Cancer Sci 2006 May, 97(5): 411-9; Watanabe T et al., Cancer Sci 2005 August, 96(8): 498-506).
as §1

Experiment [3] has as its system COS7 cells transfected with SEMA5B and HLA-A*2402. Put plainly: Specific CTL activity against target cells expressing SEMA5B and HLA-A*2402. The experiment is classed as cell-based, African green monkey. Conditions: CTL line established with the peptide. From the text:
The cDNA encoding an open reading frame of target genes or HLA-A*2402 was amplified by PCR. The PCR-amplified product was cloned into expression vector. The plasmids were transfected into COS7, which is the target genes and HLA-A*2402-null cell line, using lipofectamine 2000 (Invitrogen) according to the manufacturer's recommended procedures. After 2 days from transfection, the transfected cells were harvested with versene (Invitrogen) and used as the stimulator cells (5×10^4 cells/well) for CTL activity assay.
The established CTL line raised against SEMA5B-A24-10-290 (SEQ ID NO: 41) peptide was examined for the ability to recognize target cells that express SEMA5B and HLA-A*2402 molecule. COS7 cells transfected with both the full SEMA5B and HLA-A*2402 gene (a specific model for the target cells that express SEMA5B and HLA-A*2402 gene) were prepared as a stimulator cells, and COS7 cells transfected with either full length of SEMA5B or HLA-A*2402 were used as the controls.

Experiment [4] relates to peptide-pulsed TISI cells. Kind of experiment: In vitro CTL induction with peptide-pulsed DCs, IFN-gamma ELISPOT assay. The experiment is classed as cell-based, human. Conditions: for Peptide specific CTL activity (IFN-gamma production), IFN-gamma ELISPOT: CTLs induced with the peptide, target cells pulsed with peptide vs not pulsed (control); for CTL inducibility: summary statement in the description.
From the text: Monocyte-derived dendritic cells (DCs) were used as antigen-presenting cells to induce cytotoxic T lymphocyte (CTL) responses against peptides presented on human leukocyte antigen (HLA). DCs were generated in vitro as described elsewhere (Nakahara S et al., Cancer Res 2003 Jul. 15, 63(14): 4112-8). Specifically, peripheral blood mononuclear cells isolated from a normal volunteer (HLA-A*2402 positive) by Ficoll-Paque plus (Pharmacia) solution were separated by adherence to a plastic tissue culture dish (Becton Dickinson) so as to enrich them as the monocyte fraction. The monocyte-enriched population was cultured in the presence of 1000 IU/ml of granulocyte-macrophage colony-stimulating factor (R&D System) and 1000 IU/ml of interleukin (IL)-4 (R&D System) in AIM-V Medium (Invitrogen) containing 2% heatinactivated autologous serum (AS). After 7 days of culture, the cytokine-induced DCs were pulsed with 20 micro g/ml of each of the synthesized peptides in the presence of 3 micro g/ml of beta 2-microglobulin for 3 hr at 37 degrees C. in AIM-V Medium. The generated cells appeared to express DC-associated molecules, such as CD80, CD83, CD86 and HLA class II, on their cell surfaces (data not shown). These peptide-pulsed DCs were then inactivated by X ray-irradiated (20 Gy) and mixed at a 1:20 ratio with autologous CD8+ T cells, obtained by positive selection with CD8 Positive Isolation Kit (Dynal). These cultures were set up in 48-well plates (Corning); each well contained 1.5×10^4 peptide-pulsed DCs, 3×10^5 CD8+ T cells and 10 ng/ml of IL-7 (R&D System) in 0.5 ml of AIM-V/2% AS medium. Three days later, these cultures were supplemented with IL-2 (CHIRON) to a final concentration of 20 IU/ml. On day 7 and 14, the T cells were further stimulated with the autologous peptide-pulsed DCs. The DCs were prepared each time by the same way described above. CTL was tested against peptide-pulsed TISI cells after the 3rd round of peptide stimulation on day 21 (Tanaka H et al., Br J Cancer 2001 Jan 5, 84(1): 94-9; Umano Y et al., Br J Cancer 2001 Apr. 20, 84(8): 1052-7; Uchida N et al., Clin Cancer Res 2004 Dec. 15, 10(24): 8577-86; Suda T et al., Cancer Sci 2006 May, 97(5): 411-9; Watanabe T et al., Cancer Sci 2005 August, 96(8): 498-506).
as §1

“Also recorded” adds a separate entry of the source. No end group written: not given here.

Regarding AYDIGLFAYF [SEQ ID NO: 41, AYDIGLFAYF], the “IFN-gamma production of CTL clones, IFN-gamma ELISA” value (“IFN-gamma production of CTL clones” for short) in experiment [1] (listed as SEMA5B-A24-10-290) is reported as “potent IFN-gamma production”. The “IFN-gamma production of CTL lines, IFN-gamma ELISA” value (“IFN-gamma production of CTL lines” for short) in experiment [2] is reported as “potent IFN-gamma production”. Also, the “Specific CTL activity against control COS7 cells expressing either HLA-A*2402 or SEMA5B” value in experiment [3] (controls) was “no significant specific CTL activity”. Besides, the “Specific CTL activity against COS7 cells transfected with both SEMA5B and HLA-A*2402” value in experiment [3] (listed as SEMA5B-A24-10-290) is “potent CTL activity; also recorded: specific CTL activity”. Besides, in experiment [4] (listed as SEMA5B-A24-10-290), the “Peptide specific CTL activity (IFN-gamma production), IFN-gamma ELISPOT” value (from here on “Peptide specific CTL activity”) is “potent IFN-gamma production; also recorded: significant and specific CTL activity”. Also, the CTL inducibility result in experiment [4] is “particularly high CTL inducibility”.

Take AYRSQGACL [SEQ ID NO: 20, AYRSQGACL]: the “Peptide specific CTL activity” value in experiment [4] (listed as SEMA5B-A24-9-558) is “potent IFN-gamma production; also recorded: significant and specific CTL activity”. Further, in experiment [4], the CTL inducibility entry was “particularly high CTL inducibility”.

Take CFLGSGLLTL [SEQ ID NO: 47, CFLGSGLLTL]: in experiment [4] (listed as SEMA5B-A24-10-1044), the “Peptide specific CTL activity” value was “potent IFN-gamma production; also recorded: significant and specific CTL activity”. In addition, the CTL inducibility result in experiment [4] is listed as “particularly high CTL inducibility”.

Turning to CYLEELHVL [SEQ ID NO: 2, CYLEELHVL], the “IFN-gamma production of CTL clones” value in experiment [1] (listed as SEMA5B-A24-9-512) is “potent IFN-gamma production”. Also, the “IFN-gamma production of CTL lines” value in experiment [2] is recorded as “potent IFN-gamma production”. The “Peptide specific CTL activity” value in experiment [4] (listed as SEMA5B-A24-9-512) was “potent IFN-gamma production; also recorded: significant and specific CTL activity”. Further, the CTL inducibility entry in experiment [4] was “particularly high CTL inducibility”.

Turning to FYYNELQSAF [SEQ ID NO: 40, FYYNELQSAF], the “Peptide specific CTL activity” value in experiment [4] (listed as SEMA5B-A24-10-354) is “potent IFN-gamma production; also recorded: significant and specific CTL activity”. For the same sequence, in experiment [4], the CTL inducibility entry is listed as “particularly high CTL inducibility”.

Consider IFWASWGSW [SEQ ID NO: 8, IFWASWGSW], for which the “Peptide specific CTL activity” value in experiment [4] (listed as SEMA5B-A24-9-723) was “potent IFN-gamma production; also recorded: significant and specific CTL activity”. Further, the CTL inducibility entry in experiment [4] was “particularly high CTL inducibility”.

In the case of IGLFAYFFL [SEQ ID NO: 10, IGLFAYFFL], the “IFN-gamma production of CTL lines” value in experiment [2] is “potent IFN-gamma production”. In experiment [4] (listed as SEMA5B-A24-9-293), the “Peptide specific CTL activity” value is “potent IFN-gamma production; also recorded: significant and specific CTL activity”. Moreover, the CTL inducibility result in experiment [4] was “particularly high CTL inducibility”.

As to KWLNEPNFV [SEQ ID NO: 9, KWLNEPNFV], the “Peptide specific CTL activity” value in experiment [4] (listed as SEMA5B-A24-9-280) was “potent IFN-gamma production; also recorded: significant and specific CTL activity”. Further, the CTL inducibility entry in experiment [4] was “particularly high CTL inducibility”.

Consider LYAATVIDF [SEQ ID NO: 1, LYAATVIDF], for which, in experiment [4], the “Peptide specific CTL activity” value is listed as “no specific IFN-gamma production”.

As for LYIGTESGTI [SEQ ID NO: 54, LYIGTESGTI], in experiment [4] (listed as SEMA5B-A24-10-489), the “Peptide specific CTL activity” value was “potent IFN-gamma production; also recorded: significant and specific CTL activity”. The CTL inducibility entry in experiment [4] is given as “particularly high CTL inducibility”.

Turning to PYSEIPVIL [SEQ ID NO: 3, PYSEIPVIL], the “IFN-gamma production of CTL clones” value in experiment [1] (listed as SEMA5B-A24-9-1010) is recorded as “potent IFN-gamma production”. In experiment [2], the “IFN-gamma production of CTL lines” value is “potent IFN-gamma production”. Besides, the “Peptide specific CTL activity” value in experiment [4] (listed as SEMA5B-A24-9-1010) is “potent IFN-gamma production; also recorded: significant and specific CTL activity”. In addition, the CTL inducibility result in experiment [4] is “particularly high CTL inducibility”.

For RFSHLVVDL [SEQ ID NO: 13, RFSHLVVDL], the “Peptide specific CTL activity” value in experiment [4] (listed as SEMA5B-A24-9-470) is “potent IFN-gamma production; also recorded: significant and specific CTL activity”. For the same sequence, the CTL inducibility result in experiment [4] was “particularly high CTL inducibility”.

Consider VFMCGTNAF [SEQ ID NO: 4, VFMCGTNAF], for which the “Peptide specific CTL activity” value in experiment [4] (listed as SEMA5B-A24-9-196) was “potent IFN-gamma production; also recorded: significant and specific CTL activity”. The CTL inducibility result in experiment [4] was “particularly high CTL inducibility”.
